Our source for the IC50 values is paper PMC11857971, “^11C-Labeling of a Flavanone Extracted from a South American Native Species for Evaluation of Its Interaction with GSK-3β” (Molecules, 2025).

Broadly, the IC50 is the concentration that inhibits the measured activity by half.

The test deals with T1, GSK-3β (Homo sapiens, UniProt P49841).
T1 construct: gene GSK3B
Nature of the test: Kinase-Glo luminescent kinase assay, recombinant human GSK-3β, dose-response. It counts as biochemical. (In general: Kinase-Glo measures the ATP left after a reaction by luminescence.)

T1 sequence (P49841 whole entry): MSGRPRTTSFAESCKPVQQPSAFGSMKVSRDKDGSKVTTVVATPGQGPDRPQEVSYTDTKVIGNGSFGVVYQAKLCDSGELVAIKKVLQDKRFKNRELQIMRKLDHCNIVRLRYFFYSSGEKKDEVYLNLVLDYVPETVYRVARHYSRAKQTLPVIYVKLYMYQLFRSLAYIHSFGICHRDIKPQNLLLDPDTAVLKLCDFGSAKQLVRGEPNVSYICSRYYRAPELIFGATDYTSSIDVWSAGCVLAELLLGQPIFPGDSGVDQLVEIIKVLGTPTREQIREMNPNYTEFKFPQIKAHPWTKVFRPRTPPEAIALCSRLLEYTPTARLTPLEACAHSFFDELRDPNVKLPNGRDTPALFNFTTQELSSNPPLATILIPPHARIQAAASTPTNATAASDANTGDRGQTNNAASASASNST

On to `COc1cc(O)c2c(c1CC=C(C)C)O[C@H](c1ccccc1)CC2=O` [FLA, (S)-5-hidroxy-7-methoxy-8-(3-methylbut-2-en-1-yl)-2-phenylcroman-4-one], for which the half-inhibitory concentration (IC50) was 16.1 ± 0.6 µM.

Take `CC(C)=CCc1c(O)cc(O)c2c1O[C@H](c1ccccc1)CC2=O` [glabranin, (S)-5,7-dihydroxy-8-(3-methylbut-2-en-1-yl)-2-phenylchroman-4-one]: the half-inhibitory concentration (IC50) came to 44.8 ± 4 µM.
